This note sets out measurements from patent US12077503B2, “Substituted cyclic amides and their use as herbicides” (FMC CORPORATION, priority 2015, dated 2024).

Common to all, as to format: in vivo
In test [1] the test system is giant foxtail (Setaria faberii). Kind of test: Test A preemergence. Conditions: Setaria faberi, pre-emergence, 240 h; for pest or weed control at 125 g/ha: 125 g ai/ha; for pest or weed control at 500 g/ha: 500 g ai/ha. In a few lines: (§1)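 Seeds sprayed preemergence with a directed soil spray, or plants at 2 to 10 cm height and one- to two-leaf stage sprayed postemergence, with test chemicals in a non-phytotoxic solvent mixture containing surfactant, in loam soil–sand blend. Injury rated visually against untreated controls after about 10 d in greenhouse, 0 (no effect) to 100 (complete control).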

Test [2] concerns barnyardgrass (Echinochloa crus-galli). Kind of test: Test B flooded paddy test. Conditions: Echinochloa crus-galli, 250 g ai/ha, Flood, read-out: Barnyardgrass plant response rating. In a few lines:
(§2)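 Evaluation by eye, against controls, occurred 13–15 d post-treatment in a greenhouse, using a 0 (no effect) to 100 (complete control) scale. Application was into the paddy water, 3 cm deep over the soil, on 2-leaf plants.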

The subject of a further test is rice (Oryra sativa). Kind of test: Test B flooded paddy test. Conditions: Oryza sativa, 250 g ai/ha, Flood, read-out: Rice plant response rating. In a few lines: as §2
Test [3] deals with sedge, umbrella (small-flower umbrella sedge, Cyperus difformis). Briefly: Test B flooded paddy test. Conditions: Cyperus difformis, 250 g ai/ha, Flood, read-out: Sedge, Umbrella plant response rating. A digest of the protocol: as §2
In test [4] the test system is ducksalad (Heteranthera limosa). Briefly: Test B flooded paddy test. Conditions: Heteranthera limosa, 250 g ai/ha, Flood, read-out: Ducksalad plant response rating. A digest of the protocol: as §2
Test [5] has as its system ragweed (common ragweed, Ambrosia elatior). Briefly: Test A postemergence. The following applies: Ambrosia artemisiifolia, post-emergence, 240 h, postemergence; for pest or weed control at 125 g/ha: 125 g ai/ha. In a few lines: as §1
The subject of test [6] is giant foxtail (Setaria faberii). Kind of test: Test A postemergence. The following applies: Setaria faberi, post-emergence, 240 h, postemergence; for pest or weed control at 125 g/ha: 125 g ai/ha. In a few lines: as §1
For test [7], the system named is barnyardgrass (Echinochloa crus-galli). Briefly: Test A postemergence. Conditions: Echinochloa crus-galli, post-emergence, 240 h, postemergence; for pest or weed control at 125 g/ha: 125 g ai/ha. A digest of the protocol: as §1
Test [8] has as its system Galium (catchweed bedstraw, Galium aparine). Kind of test: Test A postemergence. The following applies: Galium, post-emergence, 240 h, postemergence; for pest or weed control at 125 g/ha: 125 g ai/ha. A digest of the protocol:
as §1

The next test concerns corn (Zea mays). Briefly: Test A postemergence. Conditions: Zea mays, post-emergence, 240 h, postemergence; for plant injury at 125 g/ha: 125 g ai/ha. In a few lines: as §1
The subject of test [9] is ryegrass, Italian (Italian ryegrass, Lolium multiflorum). Briefly: Test A postemergence. Conditions: Lolium multiflorum, post-emergence, 240 h, postemergence; for pest or weed control at 125 g/ha: 125 g ai/ha. In a few lines: as §1
Test [10] concerns wheat (Triticum aestivum). Briefly: Test A postemergence. Conditions: Triticum aestivum, post-emergence, 240 h, postemergence; for plant injury at 125 g/ha: 125 g ai/ha. A digest of the protocol:
as §1

In test [11] the test system is blackgrass (Alopecurus myosuroides). Briefly: Test A postemergence. Conditions: Alopecurus myosuroides, post-emergence, 240 h, postemergence; for pest or weed control at 125 g/ha: 125 g ai/ha. A digest of the protocol: as §1
The test system of test [12] is pigweed (Amaranthus retroflexus). Kind of test: Test A postemergence. Conditions: Amaranthus retroflexus, post-emergence, 240 h, postemergence; for pest or weed control at 125 g/ha: 125 g ai/ha. A digest of the protocol: as §1
In another test the test system is Kochia (Kochia scoparia). Kind of test: Test A postemergence. The following applies: Bassia scoparia, post-emergence, 240 h, postemergence; for pest or weed control at 125 g/ha: 125 g ai/ha. A digest of the protocol:
as §1

Setting [13] is: preemergence, 0 to 100 scale where 0 is no effect and 100 is complete control, read-out: Foxtail, Giant plant response rating.
[14] abbreviates: 0 to 100 scale where 0 is no effect and 100 is complete control.
Setting [15] is: scale of 0 to 100 where 0 is no effect and 100 is complete control.

Read-outs that look alike come from different tables or passages of the source.

For the compound `O=C1NC[C@H](c2ccc(F)c(OC(F)(F)C(F)F)c2)[C@H]1C(=O)Nc1ccccc1F` [Compound 1133], the pest or weed control at 125 g/ha in [1] (preemergence, 0 to 100 scale where 0 is no effect and 100 is complete control, approx. 10 d, read-out: Foxtail, Giant plant response rating) turned out to be 90%; in [5] (visual injury on 0 to 100 scale (0 no effect, 100 complete control), approx. 10 d, read-out: Ragweed plant response rating), 60%; in test [6] (visual injury on 0 to 100 scale (0 no effect, 100 complete control), approx. 10 d, read-out: Foxtail, Giant plant response rating), 90%; in test [7] (visual injury on 0 to 100 scale (0 no effect, 100 complete control), approx. 10 d, read-out: Barnyardgrass plant response rating), 80%; in test [8] (visual injury on 0 to 100 scale (0 no effect, 100 complete control), approx. 10 d, read-out: Galium plant response rating), 70%; in [9] (visual injury on 0 to 100 scale (0 no effect, 100 complete control), approx. 10 d, read-out: Ryegrass, Italian plant response rating) it was 20%. Also, the pest or weed control at 125 g/ha in test [11] (visual injury on 0 to 100 scale (0 no effect, 100 complete control), approx. 10 d, read-out: Blackgrass plant response rating) was found to be 30%; in test [12] (visual injury on 0 to 100 scale (0 no effect, 100 complete control), approx. 10 d, read-out: Pigweed plant response rating), 0%; with Kochia (Kochia scoparia) (visual injury on 0 to 100 scale (0 no effect, 100 complete control), approx. 10 d, read-out: Kochia plant response rating), 30%. The pest or weed control at 500 g/ha in test [1] (setting [13]) amounted to 90%; in test [5] (500 g ai/ha, 0 to 100 scale, 0 is no effect, 100 is complete control, read-out: Ragweed plant response rating), 70%; in test [6] (500 g ai/ha, 0 to 100 scale, 0 is no effect, 100 is complete control, read-out: Foxtail, Giant plant response rating), 90%; in test [7] (500 g ai/ha, 0 to 100 scale, 0 is no effect, 100 is complete control, read-out: Barnyardgrass plant response rating), 90%; in test [8] (500 g ai/ha, 0 to 100 scale, 0 is no effect, 100 is complete control, read-out: Galium plant response rating) it was 70%; in test [9] (500 g ai/ha, 0 to 100 scale, 0 is no effect, 100 is complete control, read-out: Ryegrass, Italian plant response rating), 40%. Further, the pest or weed control at 500 g/ha is 70% in test [11] (500 g ai/ha, 0 to 100 scale, 0 is no effect, 100 is complete control, read-out: Blackgrass plant response rating); 70% in [12] (500 g ai/ha, 0 to 100 scale, 0 is no effect, 100 is complete control, read-out: Pigweed plant response rating); 70% in the test with Kochia (Kochia scoparia) (500 g ai/ha, 0 to 100 scale, 0 is no effect, 100 is complete control, read-out: Kochia plant response rating). For the same compound, the pest or weed control at 250 g/ha in test [2] (setting [14]) amounted to 50%; in the test on rice (Oryra sativa) (setting [14]), 0%; in test [3] (setting [14]), 0%; in test [4] (setting [14]), 85%. Also, the plant injury at 125 g/ha amounted to 50% in the test with corn (Zea mays) (visual injury on 0 to 100 scale (0 no effect, 100 complete control), approx. 10 d, read-out: Corn plant response rating) and 60% in test [10] (visual injury on 0 to 100 scale (0 no effect, 100 complete control), approx. 10 d, read-out: Wheat plant response rating). Further, the plant injury at 500 g/ha with corn (Zea mays) (500 g ai/ha, 0 to 100 scale, 0 is no effect, 100 is complete control, read-out: Corn plant response rating) was found to be 80%; in test [10] (500 g ai/ha, 0 to 100 scale, 0 is no effect, 100 is complete control, read-out: Wheat plant response rating), 70%.

For `CN1C[C@H](c2cccc(F)c2)[C@@H](C(=O)Nc2ccccc2C(F)(F)F)C1=O` [Compound 823], the pest or weed control at 125 g/ha in [1] (setting [13]) amounted to 100%; in test [5] (visual injury rating after approximately 10 d, read-out: Ragweed plant response rating (0 to 100 scale, 0 no effect, 100 complete control)) it was 20%; in test [6] (visual injury rating after approximately 10 d, read-out: Foxtail, Giant plant response rating (0 to 100 scale, 0 no effect, 100 complete control)), 90%; in test [7] (visual injury rating after approximately 10 d, read-out: Barnyardgrass plant response rating (0 to 100 scale, 0 no effect, 100 complete control)) it was 90%; in test [8] (visual injury rating after approximately 10 d, read-out: Galium plant response rating (0 to 100 scale, 0 no effect, 100 complete control)), 30%; in test [9] (visual injury rating after approximately 10 d, read-out: Ryegrass, Italian plant response rating (0 to 100 scale, 0 no effect, 100 complete control)), 0%. Besides, the pest or weed control at 125 g/ha in test [11] (visual injury rating after approximately 10 d, read-out: Blackgrass plant response rating (0 to 100 scale, 0 no effect, 100 complete control)) is 20%; in test [12] (visual injury rating after approximately 10 d, read-out: Pigweed plant response rating (0 to 100 scale, 0 no effect, 100 complete control)), 20%; in the test with Kochia (Kochia scoparia) (visual injury rating after approximately 10 d, read-out: Kochia plant response rating (0 to 100 scale, 0 no effect, 100 complete control)), 20%. Besides, the pest or weed control at 500 g/ha in [1] (Preemergence, visual injury vs untreated controls after approximately 10 d, read-out: Foxtail, Giant plant response rating (0 to 100 scale where 0 is no effect and 100 is complete control)) amounted to 100%. For the same compound, the pest or weed control at 250 g/ha came to 40% in [2] (setting [15]), 0% in the test on rice (Oryra sativa) (setting [15]), 0% in [3] (setting [15]) and 90% in [4] (setting [15]). Further, the plant injury at 125 g/ha in the test on corn (Zea mays) (visual injury rating after approximately 10 d, read-out: Corn plant response rating (0 to 100 scale, 0 no effect, 100 complete control)) is 0%; in test [10] (visual injury rating after approximately 10 d, read-out: Wheat plant response rating (0 to 100 scale, 0 no effect, 100 complete control)), 0%.
